Assays:
[1] = Intratumoral concentration of STING agonist in B16-F10 melanoma tumors; format: in vivo, C57BL/6 mice; conditions: 0.3 μg of CL656 intratumoral dose; after about 360 minutes
Procedure: The intratumoral concentration of STING agonist in Buffer B over time was investigated.
Briefly, B16-F10 melanoma cells were subcutaneously transplanted into C57BL/6 mice. When dermal tumors were visible, each animal received an intratumoral dose of either free STING agonist (0.3 μg of CL656) or exosome-encapsulated STING agonist (0.3 μg of CL656). Intratumoral concentration of free STING agonist and exosome-encapsulated STING agonist was measured at 5, 30, 120, 360, 1440, and 2880 minutes after injection. […] Further shown in FIG. 3D, the concentration of exosome-encapsulated STING agonist fell slowly to about 100 nM at 1440 minutes. Thereafter, the concentration of exosome-encapsulated STING agonist was steady at about 100 nM until the last measurement was taken at 2880 minutes.

IFNβ mRNA = IFNβ mRNA expression in liver after intravenous administration; format: in vivo, C57BL/6 mice; conditions: 20 μg intravenously; 4 hours
Procedure: The effect of administration of exosomes containing STING agonist CL656 on gene expression in C57BL/6 liver was investigated.
After thawing, exosomes in buffer B composition containing STING agonist CL656 was stored at 4° C. and 22° C. for 24 h or 72 h as described in Example 5. PBS, CL656 (20 μg), exosomes, or exosomes in buffer B containing STING agonist CL656 that incubated as described above (600 ng of CL656 per mouse) were administered into C57BL/6 mice intravenously. As a control, exosomes in buffer B composition containing STING agonist CL656 that were stored at −80° C. (6 ng, 60 ng, and 600 ng per mouse) were administered (considered as 0 h). After 4 hours, mice were euthanized and liver was collected. Total RNA was isolated from liver by using RNeasy Lipid Mini Kit (Qiagen) and expression level of IFNβ mRNA was determined by RT-qPCR. Relative expression was normalized against housekeeping gene RPS13. FIG. 3C provides the results from the liver study.

Nc1ncnc2c1ncn2[C@@H]1O[C@@H]2COP(=O)(S)O[C@H]3[C@@H](F)[C@H](n4cnc5c(=O)[nH]cnc54)O[C@@H]3COP(O)(=S)O[C@H]2[C@H]1F (some centres unmarked) [CL656]
intratumoral concentration [1]: not detectable | IFNβ mRNA in liver (RT-qPCR, normalized against RPS13) (IFNβ mRNA): low level

— patent publication US20240099973A1, “EXTRACELLULAR VESICLE COMPOSITIONS” (LONZA SALES AG, priority 2019, published 2024)
